Assay results reported in patent US20080261936A1, “METHODS OF REDUCING THE BODY WEIGHT OF A SUBJECT BY ADMINISTERING A FATTY ACID ESTER OF AN ESTROGEN OR ESTROGEN DERIVATIVE IN AN OIL AND COMPOSITIONS CONTAINING THE SAME” (Manhattan Pharmaceuticals, Inc., priority 2006, published 2008).
Values joined by “and” are separate entries in the source; they are usually repeats but may differ in a detail not shown here. Equal values may be shown once.

Assay: Compatibility/stability of oleoyl-estrone in oil systems (appearance/color, potency, related substances)
Format: physicochemical
Description: The compatibility of oleoyl-estrone in various oil systems was also assessed. The respective stability of oleoyl-estrone in various oils was assessed following storage at (A) 25° C./60% and relative humidity (RH), (B) 40° C./75% RH, (C) 50° C. and (D) 60° C. in canola oil, safflower oil, Captex and a 2:1 Captex: Labrafil mixture. The stability test methods include appearance/color, potency, and related substances (e.g. impurities or degradant in the oleoyl-estrone and oil mixture).

[1] = in 2:1 CAPTEX:LABRAFIL, One Week 25° C./60% RH
[2] = in 2:1 CAPTEX:LABRAFIL, One Week 40° C./75% RH
[3] = in 2:1 CAPTEX:LABRAFIL, One Week 50° C.
[4] = in 2:1 CAPTEX:LABRAFIL, One Week 60° C.
[5] = in 2:1 CAPTEX:LABRAFIL, Time Zero
[6] = in 2:1 CAPTEX:LABRAFIL, Two Weeks 25° C./60% RH
[7] = in 2:1 CAPTEX:LABRAFIL, Two Weeks 40° C./75% RH
[8] = in CANOLA, One Week 25° C./60% RH
[9] = in CANOLA, One Week 40° C./75% RH
[10] = in CANOLA, Three Weeks 25° C./60% RH
[11] = in CANOLA, Three Weeks 40° C./75% RH
[12] = in CANOLA, Two Weeks 25° C./60% RH
[13] = in CANOLA, Two Weeks 40° C./75% RH
[14] = in CAPTEX, One Week 25° C./60% RH
[15] = in CAPTEX, One Week 40° C./75% RH
[16] = in CAPTEX, Three Weeks 25° C./60% RH
[17] = in CAPTEX, Three Weeks 40° C./75% RH
[18] = in CAPTEX, Two Weeks 25° C./60% RH
[19] = in CAPTEX, Two Weeks 40° C./75% RH

Mean Purity Assay [1]: 101.9%
Purity Assay [1]: 100.4% and 103.3%
Mean Purity Assay [2]: 104.4%
Purity Assay [2]: 102.2% and 106.6%
Mean Purity Assay [3]: 106.8%
Purity Assay [3]: 106.6% and 107.0%
Mean Purity Assay [4]: 98.2%
Purity Assay [4]: 98.4% and 97.9%
Mean Purity Assay (in 2:1 CAPTEX:LABRAFIL, Three Weeks 25° C./60% RH): 102.1%
Mean Purity Assay (in 2:1 CAPTEX:LABRAFIL, Three Weeks 40° C./75% RH): 99.7%
Mean Purity Assay (in 2:1 CAPTEX:LABRAFIL, Three Weeks 50° C.): 103.8%
Mean Purity Assay (in 2:1 CAPTEX:LABRAFIL, Three Weeks 60° C.): 102.1%
Mean Purity Assay [5]: 104.8%
Purity Assay [5]: 105.1% and 104.9% and 103.6% and 105.2%
Mean Purity Assay [6]: 102.9%
Purity Assay [6]: 101.3% and 104.4%
Mean Purity Assay [7]: 104.5%
Purity Assay [7]: 107.3% and 101.7%
Mean Purity Assay (in 2:1 CAPTEX:LABRAFIL, Two Weeks 50° C.): 104.0%
Mean Purity Assay (in 2:1 CAPTEX:LABRAFIL, Two Weeks 60° C.): 106.2%
Mean Purity Assay [8]: 96.5%
Purity Assay [8]: 96.3% and 96.7%
Mean Purity Assay [9]: 95.8%
Purity Assay [9]: 95.2% and 96.4%
Mean Purity Assay (in CANOLA, One Week 50° C.): 99.8%
Purity Assay (in CANOLA, One Week 50° C.): 96.3% and 103.3%
Mean Purity Assay (in CANOLA, One Week 60° C.): 98.2%
Purity Assay (in CANOLA, One Week 60° C.): 97.8% and 98.5%
Mean Purity Assay [10]: 96.5%
Purity Assay [10]: 95.3% and 97.7%
Mean Purity Assay [11]: 98.4%
Purity Assay [11]: 94.6% and 102.2%
Mean Purity Assay (in CANOLA, Three Weeks 50° C.): 99.4%
Purity Assay (in CANOLA, Three Weeks 50° C.): 100.2% and 98.5%
Mean Purity Assay (in CANOLA, Three Weeks 60° C.): 99.8%
Purity Assay (in CANOLA, Three Weeks 60° C.): 100.4% and 99.1%
Mean Purity Assay (in CANOLA, Time Zero): 98.1%
Purity Assay (in CANOLA, Time Zero): 97.5% and 98.0% and 97.8% and 98.9%
Mean Purity Assay [12]: 96.4%
Purity Assay [12]: 92.5% and 100.3%
Mean Purity Assay [13]: 99.0%
Purity Assay [13]: 98.2% and 99.8%
Mean Purity Assay (in CANOLA, Two Weeks 50° C.): 98.2%
Purity Assay (in CANOLA, Two Weeks 50° C.): 100.2% and 96.2%
Mean Purity Assay (in CANOLA, Two Weeks 60° C.): 97.3%
Purity Assay (in CANOLA, Two Weeks 60° C.): 96.7% and 97.9%
Mean Purity Assay [14]: 105.2%
Purity Assay [14]: 102.0% and 108.3%
Mean Purity Assay [15]: 103.6%
Purity Assay [15]: 105.2% and 101.9%
Mean Purity Assay (in CAPTEX, One Week 50° C.): 101.2%
Purity Assay (in CAPTEX, One Week 50° C.): 99.5% and 102.9%
Mean Purity Assay (in CAPTEX, One Week 60° C.): 101.9%
Purity Assay (in CAPTEX, One Week 60° C.): 101.5% and 102.3%
Mean Purity Assay [16]: 99.5%
Purity Assay [16]: 100.4% and 98.5%
Mean Purity Assay [17]: 99.1%
Purity Assay [17]: 99.4% and 98.8%
Mean Purity Assay (in CAPTEX, Three Weeks 50° C.): 106.5%
Purity Assay (in CAPTEX, Three Weeks 50° C.): 107.1% and 105.9%
Mean Purity Assay (in CAPTEX, Three Weeks 60° C.): 103.0%
Purity Assay (in CAPTEX, Three Weeks 60° C.): 100.7% and 105.3%
Mean Purity Assay (in CAPTEX, Time Zero): 105.4%
Purity Assay (in CAPTEX, Time Zero): 105.6% and 105.3% and 104.1% and 106.4%
Mean Purity Assay [18]: 102.8%
Purity Assay [18]: 104.8% and 100.8%
Mean Purity Assay [19]: 96.4%
Purity Assay [19]: 98.5% and 94.3%
Mean Purity Assay (in CAPTEX, Two Weeks 50° C.): 97.9%
Purity Assay (in CAPTEX, Two Weeks 50° C.): 96.5% and 99.3%
Mean Purity Assay (in CAPTEX, Two Weeks 60° C.): 102.4%
Purity Assay (in CAPTEX, Two Weeks 60° C.): 105.6% and 99.1%
Mean Purity Assay (in SAFFLOWER, One Week 25° C./60% RH): 99.1%
SMILES: CCCCCCCC/C=C\CCCCCCCC(=O)Oc1ccc2c(c1)CC[C@@H]1[C@@H]2CC[C@]2(C)C(=O)CC[C@@H]12 [oleoyl-estrone, [3(Z)]-3-[(1-oxo-9-octadecenyl)oxy]-estra-1,3,5(10)-trien-17-one]
